Values joined by “and” are separate entries in the source; they are usually repeats but may differ in a detail not shown here. Identical values can stand only once. Like-named read-outs stand apart in the source and are kept apart here.
Key:
[1] = test system: CYP2B6 mRNA; assay: CYP2B6 mRNA induction in 5F HepaRG control cells (real-time PCR); type: in vitro ADME, human; settings: for E max, induction of CYP2B6 mRNA, 5F / EC50 / EC50 at 48 h: 5F cells; for EC50 at 48 h: human
Procedure: (§1) 5F, CAR‐KO, and PXR‐KO HepaRG cells were thawed in recovery medium and plated into 96‐well collagen‐1‐coated plates at a volume of 200 μL/well. The cells were incubated at 37°C in a humidified incubator with 5% CO2 for 48 h. The recovery medium was replaced with maintenance medium and procedure repeated every Monday, Wednesday, and Friday for 18 days. On day 18, the maintenance medium was replaced with pre‐incubation medium for 72 h. On day 21, the cells were incubated with test compounds in serum‐free induction medium for 48 h. Test compounds were freshly dissolved in DMSO and then serum‐free induction medium to achieve a final DMSO concentration of 0.1% every 24 h. For enzyme induction assays, cells were thawed into recovery medium and plated into 24‐well plates at a volume of 1 mL/well. Culture conditions were as described above.
(§2) mRNA was extracted from the cell monolayers using the SV96 total RNA isolation system according to the manufacturer's instructions. Reverse transcription of mRNA to cDNA was completed using Taqman reverse transcription (RT) assay. […] An Agilent Mx3005P thermocycler was used to run a thermal cycle of: 10 min at 25°C, 30 min at 37°C, 5 min at 95°C, and a hold phase at 4°C.
(§3) An Agilent Mx3005P thermocycler was used to determine the gene expression of selected genes. Real‐time PCR solutions were prepared as described by the manufacturer. Each reaction contained 12.5 μL volume. […] PCR conditions were 15 min at 95°C (to activate polymerase, denature cDNA, and initiate PCR) followed by 40 cycles of 15 sec at 94°C (denaturation), and 60 sec at 60°C (annealing/extension of the product). Fluorescence was measured at the end of each cycle.
(§4) Gene expression data were compared to an average of GAPDH and normalized to the control sample using the comparative threshold cycle (C(t)) method (Ct = 2^−∆∆C(t)). […] Where possible data were fitted to a sigmoidal E max model (WinNonLin Phoenix, Pharsight, 6.3.0.395). All human hepatocyte data are the average of duplicate experiments and three compound concentrations. HepaRG WT are the average of triplicate experiments completed in duplicate. HepaRG 5F and HepaRG PXR‐KO data are the average of duplicate experiments and duplicate replicates of each compound concentration (six concentrations).

[2] = test system: CYP2B6 mRNA; assay: CYP2B6 mRNA induction in HepaRG wild-type cells (real-time PCR); type: in vitro ADME, human; settings: for E max, induction of CYP2B6 mRNA, HepaRG: E max ± SD; for EC50: human, EC50 ± SD
Procedure: (§5) HepaRG cells were thawed in thawing and maintenance medium and plated into 96‐well collagen‐1‐coated plates at a volume of 200 μL/well. The cells were incubated at 37°C in a humidified incubator with 5% CO2 for 72 h. Test compounds were freshly dissolved in DMSO and then serum‐free induction medium to achieve a final DMSO concentration of 0.1% every 24 h.
as §2, §3, §4

[3] = test system: CYP2B6 mRNA; assay: CYP2B6 mRNA induction in PXR-KO HepaRG cells (real-time PCR); type: in vitro ADME, human; settings: for E max for CYP2B6 in PXR-KO cells in comparison to other cell types (in words): PXR-KO vs 5F, HepaRG WT cells and PHHs; for EC50 at 48 h: human; for EC50 for CYP2B6 in PXR-KO cells in comparison to other cell types (in words): PXR-KO vs 5F cells / other cell types
Procedure: as §1, §2, §3, §4

[4] = test system: CYP2B6; assay: CYP2B6 enzyme activity induction (bupropion, LC-MS/MS) in PXR-KO and 5F cells; type: in vitro ADME, human; settings: 1.5 μmol/L CITCO, 258 μmol/L phenobarbital; bupropion 100 μmol/L, 2 h; PXR-KO vs 5F cells (Fig. 3)
Procedure: Culture conditions were as described above.
P450 enzyme activity was assessed by incubating whole‐cell monolayers for 2 h at 37°C using 100 μmol/L bupropion (CYP2B6) in unsupplemented Williams E media with a final concentration of 0.1% DMSO. Reactions were quenched by removing supernatants and diluting 1:2 into ice‐cold acetonitrile. Samples were stored at −20°C until LC‐MS/MS analysis was completed.
LC‐MS/MS analysis utilized an API‐4000 Q Trap mass spectrometer with a Turbo V atmospheric pressure electrospray ionization source (AB SCIEX, Framingham, MA). Samples (40 μL) were injected onto a Fortis C18 column (3 × 50 mm, 5 μm) and eluted by a mobile phase gradient specific for each test article (mobile phase A: 0.1% formic acid in water; mobile phase B: 0.1% formic acid in acetonitrile). Flow rate was 0.5 mL/min. MS conditions: positive or negative ionization mode (4.5 kV spray voltage); source temperature of 450°C with multiple reaction monitoring specific for each analyte and internal standard parent–product ion pairs. Peak areas of analyte and internal standard and resulting ratios were quantified using Analyst 1.5.2 (AB SCIEX, Framingham, MA).

[5] = test system: CYP2B6 mRNA; assay: in vitro; settings: human
Procedure: (§6) Cryopreserved male human hepatocytes were thawed in CHRM and plated into a 96‐well collagen‐1‐coated plate at a density of 7.5 × 10^4 viable cells in 200 μL of CHPM. Trypan blue exclusion was used to determine cell viability with a cut‐off of 85% viability. The cells were incubated at 37°C in a humidified incubator with 5% CO2. Plating medium was replaced with maintenance medium following 4 h incubation and then maintained overnight before 48 h treatment with test compound. Test compounds were freshly dissolved in dimethyl sulfoxide (DMSO) and then culture medium to achieve a final DMSO concentration of 0.1%. A vehicle control of medium with 0.1% DMSO was included in all studies.
as §2, §3
(§7) Gene expression data were compared to an average of GAPDH and normalized to the control sample using the comparative threshold cycle (C(t)) method (Ct = 2^−∆∆C(t)). […] Where possible data were fitted to a sigmoidal E max model (WinNonLin Phoenix, Pharsight, 6.3.0.395). All human hepatocyte data are the average of duplicate experiments and three compound concentrations.

[6] = test system: CYP3A4 mRNA; assay: CYP3A4 mRNA induction in PXR-KO HepaRG cells (real-time PCR)
Procedure: as §1, §2, §3, §4

[7] = test system: CYP3A4 mRNA; assay: CYP3A4 mRNA induction in HepaRG wild-type cells (real-time PCR); settings: for E max, induction of CYP3A4 mRNA, HepaRG: E max ± SD; for EC50: human
Procedure: as §5, §2, §3, §4

[8] = test system: CYP3A4 mRNA; assay: CYP3A4 mRNA induction in 5F HepaRG control cells (real-time PCR); settings: for EC50 at 48 h: human, 5F HepaRG control cells; for EC50: read-out: EC50, induction of CYP3A4 mRNA, 5F
Procedure: as §1, §2, §3, §4

[9] = test system: CYP3A4 mRNA; assay: CYP3A4 mRNA induction in cryopreserved primary human hepatocytes (real-time PCR); settings: for EC50 at 48 h: human, cryopreserved primary human hepatocytes
Procedure: (§8) The cells were incubated at 37°C in a humidified incubator with 5% CO2. Plating medium was replaced with maintenance medium following 4 h incubation and then maintained overnight before 48 h treatment with test compound. Test compounds were freshly dissolved in dimethyl sulfoxide (DMSO) and then culture medium to achieve a final DMSO concentration of 0.1%. A vehicle control of medium with 0.1% DMSO was included in all studies.
as §2, §3, §7

[10] = test system: CYP2B6 mRNA; assay: CYP2B6 mRNA induction in cryopreserved primary human hepatocytes (real-time PCR); settings: 48 h; for E max, induction of CYP2B6 mRNA, primary human hepatocyte donor D3: donor D3 (Hu8132)
Procedure: as §6, §2, §3, §7

[11] = test system: CYP3A4 mRNA; settings: human
Procedure: as §1, §2, §3, §4

[12] = test system: CYP3A4 mRNA; settings: human; remark: listed apart in the source
Procedure: as §5, §2, §3, §4

[13] = test system: CYP3A4 mRNA
Procedure: as §8, §2, §3, §7

[14] = test system: CYP3A4 mRNA; remark: listed apart in the source
Procedure: as §1, §2, §3, §4

[15] = test system: CYP3A4 mRNA; assay: in vitro; settings: human, EC50, induction of CYP3A4 mRNA, 5F
Procedure: as §1, §2, §3, §4

[16] = test system: CYP3A4 mRNA; assay: in vitro; settings: human, EC50, induction of CYP3A4 mRNA
Procedure: as §8, §2, §3, §7

[17] = 48 h, value of each individual experiment (two per cell)
[18] = cryopreserved primary human hepatocytes, donor D1 (Hu1455)
[19] = cryopreserved primary human hepatocytes, donor D3 (Hu8132)
[20] = PXR-KO HepaRG cells, compared with 5F cells
[21] = 5F cells, 48 h, value of each individual experiment (two per cell)
[22] = EC50, induction of CYP3A4 mRNA, 5F, 5F cells, 48 h, value of each individual experiment (two per cell)
[23] = donor D1 (Hu1455), NE = no effect observed, relative gene expression fold change <2
[24] = 5F HepaRG control cells, 48 h, value of each individual experiment (two per cell), read-out: EC50, induction of CYP2B6 mRNA, 5F
[25] = PXR-KO vs 5F, HepaRG WT cells and PHHs

| SMILES | E max, induction of CYP2B6 mRNA, 5F [1, 17] | EC50 [1, 17] | E max, induction of CYP2B6 mRNA, HepaRG [2] | EC50 [2] | E max for CYP2B6 in PXR-KO cells in comparison to other cell types (in words) [3] | EC50 at 48 h ([3]; PXR-KO HepaRG cells, 48 h) | CYP2B6-induced activity response [4] | EC50 at 48 h [5, 18] | EC50 at 48 h [5, 19] | E max, induction of CYP3A4 mRNA, HepaRG [7] | EC50 [7] | E max, induction of CYP3A4 mRNA, 5F [8, 21] | EC50 at 48 h [8, 22] | EC50 [8, 21] | E max, induction of CYP2B6 mRNA, primary human hepatocyte donor D1 [10, 23] | E max, induction of CYP2B6 mRNA, primary human hepatocyte donor D3 [10] | EC50 for CYP2B6 in PXR-KO cells in comparison to other cell types (in words) [3] | CYP3A4 induction response in PXR-KO cells (in words) [14] | EC50 at 48 h [1, 24] | other results |
| --- | --- | --- | --- | --- | --- | --- | --- | --- | --- | --- | --- | --- | --- | --- | --- | --- | --- | --- | --- | --- |
| Clc1ccc(-c2nc3sccn3c2C=NOCc2ccc(Cl)c(Cl)c2)cc1 [CITCO, 6‐(4‐chlorophenyl)imidazo[2,1‐b][1,3]thiazole‐5‐carbaldehyde O‐(3,4‐dichlorobenzyl)oxime] | 17.0 and 22.5 | 1 µM | 14.2 ± 7.4 | 0.03 ± 0.01 µM | similar | 0.3 µM | greater in the PXR‐KO cells | 0.2 µM | 0.3 µM | 21.1 ± 4.6 | 1.5 ± 0.1 µM | 6.4 and 7.1 | 1.9 µM | 2 µM | 6.0 | 5.5 | – | – | – | CYP2B6 induction response in 5F cells (in words) [1]: responsive; EC50 at 48 h ([1]; 5F HepaRG control cells, single value given in text, data the average of two experiments, read-out: EC50 of CYP2B6 induction in 5F cells): 0.5 µM; CYP3A4 induction response in PXR-KO cells (in words) [6, 20]: maintained; E max, induction of CYP3A4 mRNA, primary human hepatocyte donor D1 ([9]; donor D1 (Hu1455), 48 h): 3.5; E max, induction of CYP3A4 mRNA, primary human hepatocyte donor D3 ([9]; donor D3 (Hu8132), 48 h): 2.3; EC50 at 48 h ([9]; donor D1 (Hu1455)): 0.3 µM; EC50 at 48 h ([9]; donor D3 (Hu8132)): 0.4 µM |
| CCC1(c2ccccc2)C(=O)NC(=O)NC1=O [Phenobarbital, phenobarbital] | 5.9 and 5.5 | 195 µM | 68.9 ± 47.3 | 170 ± 6.8 µM | – | 98 µM | greater in the PXR‐KO cells | – | – | – | – | – | – | – | 20.2 | 26.3 | in agreement between the cell lines | much reduced | – | EC50 at 48 h ([1]; 48 h, value of each individual experiment (two per cell), read-out: EC50, induction of CYP2B6 mRNA, 5F): 145 µM; E max of CYP2B6 induction in PXR-KO cells ([3]; PXR-KO HepaRG cells, 48 h): 11.8; E max, induction of CYP3A4 mRNA, 5F [11]: 17.3, 28.1; EC50 [11]: 166 µM; E max, induction of CYP3A4 mRNA, HepaRG [12]: 110.0 ± 12.8; E max, induction of CYP3A4 mRNA, primary human hepatocyte donor D2 ([13]; hepatocytes): 13.3; E max, induction of CYP3A4 mRNA, primary human hepatocyte donor D3 ([13]; hepatocytes): 81.8; EC50 ([13]; male, human): 251 µM; E max of CYP3A4 induction in PXR-KO cells ([14]; human): 3.3; EC50 [15]: 108 µM; EC50 ([16]; primary human hepatocyte donor D1): 250 µM; EC50 ([16]; primary human hepatocyte donor D2): 366 µM; EC50 ([16]; primary human hepatocyte donor D3): 177 µM; EC50 at 48 h ([5]; male): 186 µM; EC50 ([10]; read-out: EC50, induction of CYP2B6 mRNA, primary human hepatocyte donor D1, donor D1 (Hu1455)): 98.9 µM |
| O=C1NC(=O)C(c2ccccc2)(c2ccccc2)N1 [Phenytoin, phenytoin] | 7.3 and 10.6 | 7.8 µM | 14.2 ± 3.7 | 2.7 ± 1.7 µM | lower | – | – | – | – | 89.6 ± 8.1 | 42.6 ± 6.6 µM | 16.0 and 20.8 | 18.1 µM | 19.9 µM | – | – | increased | much reduced | 5.1 µM | E max for CYP3A4 in PXR-KO cells in comparison to other cell types (in words) [14]: lower; EC50 for CYP3A4 in PXR-KO cells in comparison to other cell types (in words) [14]: increased |
| NC(=O)N1c2ccccc2C=Cc2ccccc21 [Carbamazepine, carbamazepine] | 3.1 and 7.4 | 5.4 µM | 10.7 ± 4.3 | 12 ± 7.3 µM | lower | – | – | – | – | 33.5 ± 12.6 | 24 ± 12.2 µM | 29.3 and 21.6 | 37.4 µM | – | – | – | increased | – | 8.4 µM | E max for CYP3A4 in PXR-KO cells in comparison to other cell types (in words) [6, 25]: ~four‐fold lower; EC50 for CYP3A4 in PXR-KO cells in comparison to other cell types (in words) [6, 25]: similar; EC50 at 48 h ([6]; human, PXR-KO HepaRG cells): 49 µM; EC50 at 48 h ([8]; EC50 of CYP3A4 induction in 5F cells, single value given in text, data the average of two experiments): 38 µM |
| CO[C@H]1/C=C/O[C@@]2(C)Oc3c(C)c(O)c4c(O)c(c(/C=N/N5CCN(C)CC5)c(O)c4c3C2=O)NC(=O)/C(C)=C\C=C\[C@H](C)[C@H](O)[C@@H](C)[C@@H](O)[C@@H](C)[C@H](OC(C)=O)[C@@H]1C [Rifampicin, rifampicin] | 18.9 and 12.9 | 1.7 µM and 0.7 µM | 5.2 ± 2.9 | 0.3 ± 0.2 µM | – | – | – | 0.1 µM | 5.5 µM | – | – | – | – | – | 3.9 | 16.3 | – | – | – | CYP2B6 induction response in PXR-KO cells (in words) [3, 20]: No response; EC50 at 48 h ([5]; cryopreserved primary human hepatocytes, donor D2 (Hu1601)): 5.2 µM; E max, induction of CYP2B6 mRNA, primary human hepatocyte donor D2 ([10]; donor D2 (Hu1601), NE = no effect observed, relative gene expression fold change <2): 4.3 |

From publication PMC5045942, “Evaluation of a novel PXR‐knockout in HepaRG™ cells” (Pharmacology Research & Perspectives, 2016)
